What was measured:
[1] = system: neutrophils that accumulated in the carrageenan-treated air pouches; conditions: weekly ip injection days 1, 7, 14, 21; carrageenan day 22, exudate after 4 hours
Description: J. Clin. Invest., 1993. 92(6):2675-82].
A separate group of 5 animals was given vehicle by ip injection on the same days (0.9% saline, control, n=5). On day 16, air pouches were induced on the animals by injecting 3 ml of air subcutaneously on the back. On day 22 (i.e. one day after the last dose of drug or vehicle), inflammation was induced by injection of 1 ml of a suspension of carrageenan (2% weight/volume in calcium- and magnesium-free PBS). The mice were put back in their cages and allowed to run free for 4 hours. […] After 4 hours, the animals were sacrificed, the pouches flushed with 2 ml of PBS and the exudates harvested. Aliquots were diluted 1:1 with methylene blue (0.01% w/v in PBS), and the cells were counted.

[2] = system: carrageenan-induced inflammation in air pouches; assay: duration of efficacy in the murine air-pouch model after cessation of 4 weeks of dosing; type: in vivo, mice; conditions: aminopterin 0.05 mg/kg, methotrexate 1.0 mg/kg
Description: We therefore examined the rate at which anti-inflammatory activity was lost in the air-pouch model after the cessation of 4 weeks of dosing at the maximally efficacious dose (FIG. 2).
On day 25 the air pouches were re-inflated with 1.5 ml of air. Pouches were re-inflated as needed to maintain them.

[3] = system: influx of neutrophils (PMNs) in hyperoxia; assay: rat oxygen-toxicity model of bronchopulmonary dysplasia; type: in vivo, rats; conditions: single 0.35 mg/kg ip day 2 after birth, 95% oxygen, sacrifice day 8
From the text: Mason, S, N.; Richard L. Auten, J. Lung inflammation in hyperoxia can be prevented by antichemokine treatment in newborn rats. American Journal of Respiratory Critical Care Medicine 2000, 162, 2316-2323]. […] Litter sizes were the same. […] Dams were rotated daily between air and oxygen cages to avoid maternal oxygen toxicity. On day 8, the pups were weighed and then euthanized, tracheas are cannulated and the pulmonary artery is perfused with saline. Bronchoalveolar lavage fluid (BALF) was then obtained for cell count and chemokine analysis (FIG. 3). The lungs were removed and snap frozen for myeloperoxidase activity assay (neutrophil accumulation within lung parenchyma) and 8-isoprostane, a marker of lipid oxidation. The pulmonary artery was perfused and the lungs were inflation-fixed with buffered formalin at 25 cm H2O.

[4] = system: canine atopic dermatitis; conditions: oral about 0.2 mg/kg/week
Description: […] Subjects were assessed at baseline and at weeks 2 and 4 of the trial, and every other week of the 1-year extension phase.
Subjects were assessed at baseline and at weeks 2 and 4.

[5] = system: ma104 cells; conditions: read-out: EC50 of adenosine release (prior art); Cronstein'91; cited from earlier work

CN(Cc1cnc2nc(N)nc(N)c2n1)c1ccc(C(=O)N[C@@H](CCC(=O)O)C(=O)O)cc1 [methotrexate]
EC50 for diminishing the number of neutrophils accumulated in carrageenan-treated air pouches [1]: 0.04 mg/kg/wk | difference between aminopterin and methotrexate in rate of recovery of inflammation ([2]; 8, 12 or 22 days after last of 4 weekly ip doses): no statistically significant difference | duration of action ([2]; after last of 4 weekly ip doses): quite long | influx of neutrophils in bronchoalveolar lavage fluid [3]: failed to reduce the influx of neutrophils | time to produce efficacy compared to aminopterin ([4]; 4-week trial): took longer to produce efficacy compared to aminopterin | outcome of the five treated dogs ([4]; assessed at weeks 2 and 4): Three dogs did not do well, one had not improved as of the last assessment and one dog improved markedly | EC50 [5]: ~1 nM

— patent US8129383B2, “Aminopterin dosage forms and methods for inflammatory disorders” (Aminopterin LLC, priority 2005, dated 2012)
